Test results published in patent US5869500A, “Pyridone compounds useful in treating Alzheimer's disease” (Hoffmann-La Roche Inc., priority 1996, dated 1999).

Test system: Aβ production in HEK cells over-expressing mutated β-APP (SFAD)
Assay: Aβ production inhibition, sandwich-ELISA in HEK cells, over-expressed mutated β-APP (SE-SFAD)
Type: cell-based, human
Conditions: for IC50: based on the respective plateau of maximum inhibition; for Emax: maximum inhibition plateau, read-out: SE-SFAD max. inhibition %
Experimental: The effect of test substances on the inhibition of Aβ-amyloid production can be measured in the supernatant of cell cultures of β-APP expressed cells using ELISA tests or other quantitative determination methods for β-APP degradation products. Typically, 8×10^5 cells (e.g. HEK cells, which express recombinant human β-APP variants) are plated out in each well of a culture dish having 24 wells in growth media such as e.g. OPTIMEM (Gibco) and the test compound is then added. After an incubation period of 24 to 48 hours at 37° C. in a 10% CO2 atmosphere the supernatant is removed from the cell cultures and the β-APP degradation products (e.g. Aβ or β-[…]) are determined with the aid of ELISA (or sandwich ELISA) analysis or by means of quantitative immunoprecipitation (after metabolic radiolabelling of the cell proteins). Typically, 300 μl of the cell supernatant are tested according to the state of the art for ELISA tests in culture dishes having 96 wells. In the case of sandwich ELISA for Aβ, the binding antibody can be directed against the first 16 amino acids of Aβ-peptide (e.g. 6E10 Senetek, Maryland Heights, Mo.) and the detection antibody can be directed against amino acids 17-40 or 17-42 of Aβ and carries a detection system such as e.g. peroxidase. A simple ELISA test with an antibody, e.g. 22C11 (Boehringer Mannheim), can be used as the test for […]; the second antibody can be an anti-(mouse) Ig having a detection system, such as e.g. peroxidase. The peroxidase reaction can be carried out e.g. using a TMB substrate (BioRAD) and the measurements can be carried out at 650 nm using an ELISA reading apparatus. […] SE-SFAD signifies the Aβ production inhibition measured using sandwich-ELISA in HEK cells, SFAD signifies over-expressed mutated β-APP, and SE-WT signifies the Aβ production inhibition measured using sandwich-ELISA in HEK cells which over-express Wild type β-APP. The IC50 values are based on the respective plateau of maximum inhibition.

[1] = Homo sapiens, HEK293, HEK cells

## O=C(O[C@@H]1CN(C(=O)OCc2ccccc2)C[C@@H]1O)c1cc(-c2ccccc2)c(=O)n2ccc3ccsc3c12 (racemic) [Compound 57, (3RS,4SR)-1-Benzyloxy-carbonyl-4-hydroxy-pyrrolidin-3-yl 7-oxo-8-phenyl-7H-thieno[2,3-a]quinolizine-10-carboxylate]
[1]
  IC50: 500 nM
  Emax: 35%

## O=C1CN(C(=O)c2cc(-c3ccccc3)c(=O)n3ccc4ccsc4c23)C1 [Compound 7, 10-(3-Oxo-azetidin-1-carbonyl)-8-phenyl-thieno[2,3-a]quinolizin-7-one]
[1]
  IC50: 50000 nM
  Emax: 100%

## NC(=O)c1cc(-c2ccccc2)c(=O)n2ccc3ccsc3c12 [Compound 56, 7-Oxo-8-phenyl-7H-thieno[2,3-a]quinolizine-10-carboxylic acid amide]
[1]
  IC50: 1000 nM
  Emax: 35%

## COCCN(C(=O)c1cc(-c2ccc(OCc3ccccc3)cc2)c(=O)n2ccc3ccsc3c12)C(C)C [Compound 69, 8-(4-Benzyloxy-phenyl)-7-oxo-7H-thieno[2,3-a]quinolizine-10-carboxylic acid isopropyl-(2-methoxy-ethyl)-amide]
[1]
  IC50: 800 nM
  Emax: 45%

## COCCN(Cc1cccs1)C(=O)c1cc(-c2ccccc2OC)c(=O)n2ccc3ccsc3c12 [Compound 140, 8-(2-Methoxy-phenyl)-7-oxo-7H-thieno[2,3-a]quinolizine-10-carboxylic acid (2-methoxy-ethyl)-thiophen-2-yl-methyl-amide]
[1]
  IC50: 2500 nM
  Emax: 30 to 100%

## COC(=O)c1cc(-c2ccccc2OC)c(=O)n2ccc3ccsc3c12 [Compound 114, Methyl 8-(2-methoxy-phenyl)-7-oxo-7H-thieno[2,3-a]quinolizine-10-carboxylate]
HEK cells
  IC50: 6300 nM
[1]
  Emax: 70%

## CCN(CCOC)C(=O)c1cc(-c2ccc(-c3ccccc3)cc2)c(=O)n2ccc3ccsc3c12 [Compound 93, 8-(Biphenyl-4-yl)-7-oxo-7H-thieno[2,3-a]quinolizine-10-carboxylic acid ethyl-(2-methoxy-ethyl)-amide]
[1]
  IC50: 4200 nM
  Emax: 100%

## COCCN(C(=O)c1cc(-c2ccc(OCc3ccccc3)cc2)c(=O)n2ccc3cc(C(=O)N(C)C)sc3c12)c1ccccc1 [Compound 76, 8-(4-Benzyloxy-phenyl)-7-oxo-7H-thieno[2,3-a]quinolizine-2,10-dicarboxylicacid 2-dimethylamide 10-[(2-methoxy-ethyl)-phenyl-amide]]
[1]
  IC50: 2800 nM
  Emax: 40%

## CCCN(CCOC)C(=O)c1cc(-c2ccc(OC)cc2)c(=O)n2ccc3ccsc3c12 [Compound 148, 8-(4-Methoxy-phenyl)-7-oxo-7H-thieno[2,3-a]quinolizine-10-carboxylic acid (2-methoxy-ethyl)-propyl-amide]
[1]
  IC50: 5000 nM
  Emax: 100%

## CCN(CCOC)C(=O)c1cc(-c2ccccc2OC)c(=O)n2ccc3ccsc3c12 [Compound 122, 8-(2-Methoxy-phenyl)-7-oxo-7H-thieno[2,3-a]quinolizine-10-carboxylic acidethyl-(2-methoxy-ethyl)-amide]
[1]
  IC50: 8000 nM
  Emax: 25%

## CCCc1cc2ccn3c(=O)c(-c4ccc(OCc5ccccc5)cc4)cc(C(=O)N(CCOC)c4ccccc4)c3c2s1 [Compound 79, 8-(4-Benzyloxy-phenyl)-2-propyl-7-oxo-7H-thieno[2,3-a]quinolizine-10-carboxylic acid (2-methoxy-ethyl)-phenyl-amide]
[1]
  Emax: 20 to 35%

## COCCN(CCOC)C(=O)c1cc(-c2ccc(C)cc2)c(=O)n2ccc3ccsc3c12 [Compound 150, 7--Oxo-8-p-tolyl-7H-thieno[2,3-a]quinolizine-10-carboxylic acid bis-(2-methoxy-ethyl)-amide]
[1]
  IC50: 2700 nM
  Emax: 100%

## COCCN(CC1CC1)C(=O)c1cc(-c2ccc(C(C)(C)C)cc2)c(=O)n2ccc3ccsc3c12 [Compound 112, 8-(4-tert-Butyl-phenyl)-7-oxo-7H-thieno[2,3-a]quinolizine-10-carboxylicacid cyclopropylmethyl-(2-methoxy-ethyl)-amide]
[1]
  IC50: 1500 nM
  Emax: 100%
